Patent US20090269365A1, “IMMUNOGENIC VACCINIA PEPTIDES AND METHODS OF USING SAME” (priority 2005, published 2009)

What was measured:
Format in all cases: cell-based, human
[1] = tested on: vaccinia-specific CD8 CTL clones; details: read-out: EC50 in CTL assays
[2] = tested on: bulk vaccinia-specific CD8 CTL
CD4+ T-cells = details: humans, Example 2
[3] = tested on: bulk vaccinia-specific CD8 CTL; remark: listed apart in the source

Sequence: EEQELLLLY [F3 41-49]
- EC50 [1]: ~10 nM
- IFN-γ secretion by bulk CTL, in words [2]: again detectable

Sequence: KIQNVIIDECY [L1R 127-137]
- CD4+ T-cell reactivity, in words (CD4+ T-cells): reacts with CD4+ T-cells

Sequence: NPITKTTSDYQDSDVSQEVR [A33R 157-176]
- CD4+ T-cell reactivity, in words (CD4+ T-cells): containing the epitope

Sequence: TKTTSDYQDSDVSQ [A33R 160-173]
- CD4+ T-cell reactivity, in words (CD4+ T-cells): epitope region has been further narrowed down

Sequence: VWINNSWKF [D5R 349-357]
- IFN-γ ICC response relative to DMSO background, in words [3]: detection of IFN-γ-bright cells at a level above the background

Sequence: WLKIKRDYL [A50R 395-403]
- net ICC response (peptide minus DMSO) [3]: ~1.55%
- percentage of bulk CTL positive for IFN-γ by ICC [3]: 2.95%

Sequence: YEFRKVKSY [A3L 264-272]
- IFN-γ ICC response relative to DMSO background, in words [3]: positive
- IFN-γ secretion by bulk CTL, in words [2]: positive
